Measured values as given in patent publication US20060217425A1, “Methods of treating cancer using PPAR-gamma antagonists” (priority 2005, published 2006).
“Also recorded” adds a separate entry of the source. Where two headings read alike, the source gives them in different places.

Columns and labels:
Assay type in all cases: cell-based
[1] = system: panel of solid tumor and hematopoietic cancer cell lines; test: MTT proliferation assay, panel of solid tumor and hematopoietic cancer cell lines
Experimental: (§1) In one study, in vitro cytotoxicity of a PPARγ agonist with a favorable toxicity profile (pioglitazone [Actos®]) was tested against two PPARγ antagonists (T0070907 and GW9662) in a panel of solid tumor and hematopoietic cancer cell lines, using an MTT proliferation assay.
(§2) In one exemplary method, stock solutions of the above referenced agents were dissolved in 50:50 DMSO:DMF and then diluted into cell growth medium. Concentrations of 2-40 micromolar over 5-7 days provided significant growth inhibition for a range of hematopoietic (NHL & MM) and epithelial lines (renal cell, colon, breast). […] Also, both antagonists were dissolved in a cyclodextrin-propylene glycol vehicle and administered to mice at doses of 7.5-15 mg/kg intraperitoneally daily for 3 weeks with mild-moderate toxicity.

solid tumor lines = test: MTT proliferation assay, solid tumor lines
Experimental: as §1, §2

[2] = system: Hematopoietic (NHL and MM) cell lines; test: MTT proliferation assay, hematopoietic (NHL and MM) cell lines; details: unit printed only in the preceding sentence
Experimental: as §1, §2

| Structure (SMILES) | effect of combination with the agonist pioglitazone on growth inhibition of cancer cell lines [1] | relative potency ([1]; comparison of IC50 values) | IC50 (solid tumor lines; MTT proliferation assay, range across solid tumor lines, read-out: IC50 in solid tumor lines (range over lines)) [µM] | IC50 (solid tumor lines; mean±SD across solid tumor lines, read-out: IC50 in solid tumor lines, mean±SD) [µM] | IC50 ([2]; MTT proliferation assay, range across NHL and MM lines, read-out: IC50 in hematopoietic (NHL and MM) cell lines (range over lines)) [µM] | IC50 ([2]; mean±SD across NHL and MM lines, read-out: IC50 in hematopoietic (NHL and MM) cell lines, mean±SD) [µM] |
| --- | --- | --- | --- | --- | --- | --- |
| O=C(Nc1ccccc1)c1cc([N+](=O)[O-])ccc1Cl [GW9662] | additive increases in growth inhibition; also recorded: additive effects |  |  |  |  |  |
| O=C(Nc1ccncc1)c1cc([N+](=O)[O-])ccc1Cl [T0070907] | additive increases in growth inhibition; also recorded: additive effects | more potent than GW9662 |  |  |  |  |
| CCc1ccc(CCOc2ccc(CC3SC(=O)NC3=O)cc2)nc1 (stereo not shown) [pioglitazone] |  |  | ≥ 11.1 | 60.1 ± 28.1 | 82 to 125 | 101 ± 17.7 |
